Entries after “also recorded” stand apart in the source; their conditions may differ. Values belong to the molecule of their own block, whether it stands above or below them.
Tests used:
human sst2 receptor = human sst2 receptor (Homo sapiens, UniProt P30874); assay: cAMP functional assay in CHO-K1 cells stably expressing human sst2 receptor; assay type: cell-based; settings: for sst2 pEC50±SEM: human sst2, CHO-K1 cells, cAMP, average of two or more independent measurements
hERG channel = hERG channel (Homo sapiens, UniProt Q12809); assay: hERG inhibition binding assay
Chain of hERG channel (Q12809 whole entry): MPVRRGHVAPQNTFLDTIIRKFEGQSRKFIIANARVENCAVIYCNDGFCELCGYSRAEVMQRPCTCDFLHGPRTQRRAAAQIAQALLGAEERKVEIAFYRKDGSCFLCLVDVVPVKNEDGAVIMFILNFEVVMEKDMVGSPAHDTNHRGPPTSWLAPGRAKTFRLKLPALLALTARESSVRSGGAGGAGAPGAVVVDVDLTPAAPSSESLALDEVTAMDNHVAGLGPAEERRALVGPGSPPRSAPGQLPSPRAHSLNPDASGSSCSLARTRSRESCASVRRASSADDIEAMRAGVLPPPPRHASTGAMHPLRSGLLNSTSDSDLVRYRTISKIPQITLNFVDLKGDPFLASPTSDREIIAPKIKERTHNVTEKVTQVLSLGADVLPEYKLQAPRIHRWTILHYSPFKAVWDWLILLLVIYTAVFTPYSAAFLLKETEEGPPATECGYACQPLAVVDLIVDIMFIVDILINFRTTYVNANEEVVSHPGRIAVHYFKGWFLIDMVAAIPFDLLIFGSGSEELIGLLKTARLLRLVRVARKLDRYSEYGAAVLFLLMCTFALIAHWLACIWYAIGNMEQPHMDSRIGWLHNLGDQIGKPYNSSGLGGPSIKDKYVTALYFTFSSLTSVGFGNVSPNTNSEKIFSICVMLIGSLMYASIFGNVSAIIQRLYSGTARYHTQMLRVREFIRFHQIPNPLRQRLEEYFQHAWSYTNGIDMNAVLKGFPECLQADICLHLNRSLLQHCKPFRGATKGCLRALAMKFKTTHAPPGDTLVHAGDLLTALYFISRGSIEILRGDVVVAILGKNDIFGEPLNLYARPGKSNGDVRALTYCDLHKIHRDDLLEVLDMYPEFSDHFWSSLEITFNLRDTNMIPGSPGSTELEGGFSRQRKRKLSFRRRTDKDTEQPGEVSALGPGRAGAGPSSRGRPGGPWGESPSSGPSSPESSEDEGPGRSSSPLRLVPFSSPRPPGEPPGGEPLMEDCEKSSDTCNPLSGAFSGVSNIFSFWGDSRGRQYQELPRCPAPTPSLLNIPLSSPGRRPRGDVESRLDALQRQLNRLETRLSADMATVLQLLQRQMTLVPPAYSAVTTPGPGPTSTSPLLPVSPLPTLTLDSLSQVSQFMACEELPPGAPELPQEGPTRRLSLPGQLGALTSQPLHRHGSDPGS

CYP450 3A4 = CYP450 3A4 (Homo sapiens, UniProt P08684); assay: in vitro screening CYP450 inhibition assay, 3A4; assay type: in vitro ADME; settings: top concentration tested 10 μM
Chain of CYP450 3A4 (P08684 whole entry): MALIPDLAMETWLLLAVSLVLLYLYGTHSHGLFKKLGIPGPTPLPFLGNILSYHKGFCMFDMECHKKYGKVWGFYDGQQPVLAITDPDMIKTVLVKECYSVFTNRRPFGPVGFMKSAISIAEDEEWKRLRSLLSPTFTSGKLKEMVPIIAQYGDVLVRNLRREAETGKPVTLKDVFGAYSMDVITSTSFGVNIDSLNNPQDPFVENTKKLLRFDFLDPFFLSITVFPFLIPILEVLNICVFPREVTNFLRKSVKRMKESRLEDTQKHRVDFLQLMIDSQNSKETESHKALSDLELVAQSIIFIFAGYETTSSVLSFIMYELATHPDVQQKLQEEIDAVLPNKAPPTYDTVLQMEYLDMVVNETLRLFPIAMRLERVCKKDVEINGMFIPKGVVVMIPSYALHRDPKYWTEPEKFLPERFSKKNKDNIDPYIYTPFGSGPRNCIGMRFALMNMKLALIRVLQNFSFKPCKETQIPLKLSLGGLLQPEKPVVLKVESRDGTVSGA

CYP450 2C9 = CYP450 2C9 (Homo sapiens, UniProt P11712); assay: in vitro screening CYP450 inhibition assay, 2C9; assay type: in vitro ADME; settings: top concentration tested 10 μM
Chain of CYP450 2C9 (P11712 whole entry): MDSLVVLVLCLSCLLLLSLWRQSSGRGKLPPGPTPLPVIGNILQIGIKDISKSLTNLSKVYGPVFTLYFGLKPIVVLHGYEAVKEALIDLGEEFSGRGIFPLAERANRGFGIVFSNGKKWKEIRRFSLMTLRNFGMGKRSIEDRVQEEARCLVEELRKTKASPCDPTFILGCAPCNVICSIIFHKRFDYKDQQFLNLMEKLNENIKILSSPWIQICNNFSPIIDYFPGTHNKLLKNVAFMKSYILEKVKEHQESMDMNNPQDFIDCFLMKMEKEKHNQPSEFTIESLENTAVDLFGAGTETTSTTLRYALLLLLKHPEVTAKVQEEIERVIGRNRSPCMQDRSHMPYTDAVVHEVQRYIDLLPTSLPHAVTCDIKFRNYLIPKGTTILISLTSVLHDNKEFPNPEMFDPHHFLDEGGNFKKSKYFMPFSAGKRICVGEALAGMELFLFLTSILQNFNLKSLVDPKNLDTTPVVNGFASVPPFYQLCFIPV

CYP450 2C19 = CYP450 2C19 (Homo sapiens, UniProt P33261); assay: in vitro screening CYP450 inhibition assay, 2C19; assay type: in vitro ADME; settings: top concentration tested 10 μM
Chain of CYP450 2C19 (P33261 whole entry): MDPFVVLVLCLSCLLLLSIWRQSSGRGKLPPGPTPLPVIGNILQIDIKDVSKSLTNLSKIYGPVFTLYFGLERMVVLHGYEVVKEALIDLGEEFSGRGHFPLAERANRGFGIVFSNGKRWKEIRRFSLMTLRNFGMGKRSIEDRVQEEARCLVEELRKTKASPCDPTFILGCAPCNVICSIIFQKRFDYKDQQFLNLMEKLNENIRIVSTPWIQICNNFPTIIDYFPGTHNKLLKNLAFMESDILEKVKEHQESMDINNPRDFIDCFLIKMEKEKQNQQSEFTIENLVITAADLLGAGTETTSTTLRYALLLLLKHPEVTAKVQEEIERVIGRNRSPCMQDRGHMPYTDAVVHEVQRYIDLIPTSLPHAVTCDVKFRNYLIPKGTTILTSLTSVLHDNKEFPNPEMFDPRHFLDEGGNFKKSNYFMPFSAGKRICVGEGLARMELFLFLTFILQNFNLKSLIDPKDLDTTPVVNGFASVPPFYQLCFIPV

CYP450 2D6 = CYP450 2D6 (Homo sapiens, UniProt P10635); assay: in vitro screening CYP450 inhibition assay, 2D6; assay type: in vitro ADME; settings: top concentration tested 10 μM
Chain of CYP450 2D6 (P10635 whole entry): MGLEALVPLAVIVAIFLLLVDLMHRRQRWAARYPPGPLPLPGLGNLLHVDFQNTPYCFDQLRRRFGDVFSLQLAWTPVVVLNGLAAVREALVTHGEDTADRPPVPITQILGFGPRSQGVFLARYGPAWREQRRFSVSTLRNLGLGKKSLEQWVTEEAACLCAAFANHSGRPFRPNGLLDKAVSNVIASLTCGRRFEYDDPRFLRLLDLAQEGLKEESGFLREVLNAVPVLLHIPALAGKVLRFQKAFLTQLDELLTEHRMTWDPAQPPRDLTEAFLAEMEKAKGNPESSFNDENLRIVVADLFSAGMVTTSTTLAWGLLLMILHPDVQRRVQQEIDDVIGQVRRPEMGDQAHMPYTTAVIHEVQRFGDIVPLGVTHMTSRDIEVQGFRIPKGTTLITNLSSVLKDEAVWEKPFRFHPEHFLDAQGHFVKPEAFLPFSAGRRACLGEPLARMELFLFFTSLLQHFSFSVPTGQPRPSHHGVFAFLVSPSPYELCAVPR

[1] = oral administration to male SD rats; assay type: in vivo, rat

Chain of human sst2 receptor (P30874 whole entry): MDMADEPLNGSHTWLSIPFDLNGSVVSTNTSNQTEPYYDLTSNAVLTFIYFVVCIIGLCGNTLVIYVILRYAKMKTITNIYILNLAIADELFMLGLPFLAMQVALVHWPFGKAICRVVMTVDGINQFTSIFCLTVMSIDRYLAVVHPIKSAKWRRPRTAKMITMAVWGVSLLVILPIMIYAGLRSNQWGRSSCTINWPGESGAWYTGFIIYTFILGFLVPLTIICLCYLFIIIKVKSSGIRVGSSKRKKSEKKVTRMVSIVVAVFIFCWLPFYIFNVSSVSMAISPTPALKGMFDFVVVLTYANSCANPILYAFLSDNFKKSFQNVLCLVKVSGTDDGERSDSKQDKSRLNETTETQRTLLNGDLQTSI

sst2 pEC50±SEM (human sst2 receptor): 8.9 ± 0.1
Compound: Cc1cc(C)cc(N2C=Nc3cc(C)c(-c4cccc(O)c4)cc3C2C(=O)N(C)C[C@@H]2CCCN2)c1 (some centres unmarked) [Compound 9]

sst2 pEC50±SEM (human sst2 receptor): 8.3 ± 0.1
Compound: Cc1cc(Cl)cc(N2C=Nc3cc(C)c(-c4cccc(C#N)c4)cc3C2C(=O)N(C)C[C@@H]2CCCN2)c1 (some centres unmarked) [Compound 13]

sst2 pEC50±SEM (human sst2 receptor): 9.0 ± 0.1
Compound: Cc1cc(F)cc(N2C=Nc3cc(C)c(-c4cccc(O)c4)cc3C2C(=O)N(C)C[C@@H]2CCCN2)c1 (some centres unmarked) [Compound 11]

sst2 pEC50±SEM (human sst2 receptor): 8.0 ± 0.1
enhancement of sst2 potency relative to compound 4 (human sst2 receptor; human sst2, cAMP): about 3 fold
Compound: CC[C@H](N)CN(C)C(=O)C1c2cc(-c3cccc(O)c3)c(Cl)cc2N=CN1c1cc(C)cc(C)c1 (some centres unmarked) [Compound 7]

sst2 pEC50±SEM (human sst2 receptor): 9.5 ± 0.2
Compound: Cc1cc(Cl)cc(N2C=Nc3cc(C)c(-c4cccc(O)c4)cc3C2C(=O)N(C)C[C@@H]2CCCN2)c1 (some centres unmarked) [Compound 10]

decrease of sst2 agonist activity relative to compound 4 (human sst2 receptor; human sst2, cAMP): more than 10 fold
Compound: Cc1cc(C)cc(N2C=Nc3ccc(-c4cccc(O)c4)cc3C2C(=O)N(C)C[C@H](C)N)c1 (some centres unmarked) [Compound 6]

sst2 pEC50±SEM (human sst2 receptor): 7.3 ± 0.0
Compound: Cc1cc(Cl)cc(N2C=Nc3cc(C)c(-c4ccccc4)cc3C2C(=O)N(C)C[C@@H]2CCCN2)c1 (some centres unmarked) [Compound 12]
sst2 agonist activity (in words) (human sst2 receptor; human sst2, cAMP): significantly diminished sst2 agonist activity

sst2 pEC50±SEM (human sst2 receptor): 7.4 ± 0.0
Compound: Cc1cc(Cl)cc(N2C=Nc3cc(C)c(-c4cccc(Cl)c4)cc3C2C(=O)N(C)C[C@@H]2CCCN2)c1 (some centres unmarked) [Compound 16]

sst2 pEC50±SEM (human sst2 receptor): 8.4 ± 0.2
Compound: CC[C@H](N)CN(C)C(=O)C1c2cc(-c3cccc(O)c3)c(C)cc2N=CN1c1cc(C)cc(C)c1 (some centres unmarked) [Compound 8]

The next lines start with the molecule.

Compound: Cc1cc(Cl)cc(N2C=Nc3cc(C)c(-c4cccc(C(F)(F)F)c4)cc3C2C(=O)N(C)C[C@@H]2CCCN2)c1 (some centres unmarked) [Compound 15]
sst2 pEC50±SEM (human sst2 receptor): 7.3 ± 0.0

Compound: Cc1cc(Cl)cc(N2C=Nc3cc(C)c(-c4cncc(C#N)c4)cc3C2C(=O)N(C)C[C@@H]2CCCN2)c1 (some centres unmarked) [Compound 14]
sst2 pEC50±SEM (human sst2 receptor): 7.9 ± 0.4

Compound: Cc1cc(Cl)cc(N2C=Nc3cc(C)c(-c4cc(F)cc(F)c4)cc3C2C(=O)N(C)C[C@@H]2CCCN2)c1 (some centres unmarked) [Compound 19]
sst2 pEC50±SEM (human sst2 receptor): 8.4 ± 0.0

Compound: Cc1cc(Cl)cc(N2C=Nc3cc(C)c(-c4cc(O)cc(C#N)c4)cc3C2C(=O)N(C)C[C@@H]2CCCN2)c1 (some centres unmarked) [Compound 30]
sst2 pEC50±SEM (human sst2 receptor): 9.4 ± 0.1
sst2 agonist activity (in words) (human sst2 receptor; human sst2, cAMP): tolerable

Compound: Cc1cc(Cl)cc(N2C=Nc3cc(C)c(-c4cncc(O)c4)cc3C2C(=O)N(C)C[C@@H]2CCCN2)c1 (some centres unmarked) [Compound 25]
sst2 pEC50±SEM (human sst2 receptor): 8.1 ± 0.1

Compound: COc1cc(F)cc(-c2cc3c(cc2C)N=CN(c2cc(C)cc(Cl)c2)C3C(=O)N(C)C[C@@H]2CCCN2)c1 (some centres unmarked) [Compound 20]
sst2 pEC50±SEM (human sst2 receptor): 8.2 ± 0.1

Compound: Cc1cc(Cl)cc(N2C=Nc3cc(C)c(-c4cccc(F)c4O)cc3C2C(=O)N(C)C[C@@H]2CCCN2)c1 (stereo partly drawn) [Compound 28, 3-(3-chloro-5-methylphenyl)-6-(3-fluoro-2-hydroxyphenyl)-N,7-dimethyl-N-{[(2S)-pyrrolidin-2-yl]methyl}-3,4-dihydroquinazoline-4-carboxamide]
hERG inhibition (in words) (hERG channel): moderate inhibitors; also recorded: weak inhibition
CYP 3A4 inhibition (in words) (CYP450 3A4): little inhibition; also recorded: no inhibition
CYP 2C9 inhibition (in words) (CYP450 2C9): little inhibition; also recorded: no inhibition
CYP 2C19 inhibition (in words) (CYP450 2C19): little inhibition; also recorded: no inhibition
CYP 2D6 inhibition (in words) (CYP450 2D6): little inhibition; also recorded: no inhibition
oral exposure (in words) [1]: limited oral exposure

Compound: Cc1cc(Cl)cc(N2C=Nc3cc(C)c(-c4ccc5[nH]c(=O)[nH]c5c4)cc3C2C(=O)N(C)C[C@@H]2CCCN2)c1 (some centres unmarked) [Compound 24]
sst2 pEC50±SEM (human sst2 receptor): 8.3 ± 0.2

Compound: Cc1cc(Cl)cc(N2C=Nc3cc(C)c(-c4cc(F)cc(C(N)=O)c4)cc3C2C(=O)N(C)C[C@@H]2CCCN2)c1 (some centres unmarked) [Compound 31]
sst2 agonist activity (in words) (human sst2 receptor; human sst2, cAMP): as potent as compound 26
hERG inhibition (in words) (hERG channel): moderate inhibitors

Compound: Cc1cc(C)cc(N2C=Nc3cc(Cl)c(-c4cccc(O)c4)cc3C2C(=O)NC[C@H](C)N)c1 (some centres unmarked) [Compound 5]
sst2 agonist activity (in words) (human sst2 receptor; human sst2, cAMP): completely suppressed its ability to reduce cAMP production

Compound: Cc1cc(Cl)cc(N2C=Nc3cc(C)c(-c4cnn(C)c4)cc3C2C(=O)N(C)C[C@@H]2CCCN2)c1 (some centres unmarked) [Compound 17]
sst2 pEC50±SEM (human sst2 receptor): 6.8 ± 0.1
sst2 agonist activity (in words) (human sst2 receptor; human sst2, cAMP): substantially reduced potency

Compound: Cc1cc(Cl)cc(N2C=Nc3cc(C)c(-c4cc(F)ccc4O)cc3C2C(=O)N(C)C[C@@H]2CCCN2)c1 (some centres unmarked) [Compound 29]
sst2 pEC50±SEM (human sst2 receptor): 8.7 ± 0.0

Compound: Cc1cc(Cl)cc(N2C=Nc3cc(C)c(-c4cccc(NS(C)(=O)=O)c4)cc3C2C(=O)N(C)C[C@@H]2CCCN2)c1 (some centres unmarked) [Compound 23]
sst2 pEC50±SEM (human sst2 receptor): 6.9 ± 0.1

From PMC7508466 (Bioorganic & medicinal chemistry letters, 2020)
